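1) Cells in 96-well plates. 2) Compound, 48 h, 5 concentrations. 3) Linear interpolation between surrounding doses. 4) Unreached endpoint = highest concentration. GI50: concentration for 50% inhibition of growth. TGI denotes the concentration required for complete inhibition of growth.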
How the values were obtained:
Assay in all cases: growth of human tumour cells (NCI), 48 h
ACHN renal = test system: ACHN renal
SR leukemia = test system: SR leukemia
U251 CNS = test system: U251 CNS
K-562 leukemia = test system: K-562 leukemia
MDA-MB-231 breast = test system: MDA-MB-231 breast
DU-145 prostate = test system: DU-145 prostate
TK-10 renal = test system: TK-10 renal
UACC-62 melanoma = test system: UACC-62 melanoma
NCI-H460 lung = test system: NCI-H460 lung
A498 renal = test system: A498 renal

Compound	GI50 (ACHN renal) [µM]	TGI (ACHN renal) [µM]	GI50 (SR leukemia) [µM]	TGI (SR leukemia) [µM]	GI50 (U251 CNS) [µM]	TGI (U251 CNS) [µM]	GI50 (K-562 leukemia) [µM]	TGI (K-562 leukemia) [µM]	GI50 (MDA-MB-231 breast) [µM]	TGI (MDA-MB-231 breast) [µM]	GI50 (DU-145 prostate) [µM]	TGI (DU-145 prostate) [µM]	GI50 (TK-10 renal) [µM]	TGI (TK-10 renal) [µM]	GI50 (UACC-62 melanoma) [µM]	TGI (UACC-62 melanoma) [µM]	GI50 (NCI-H460 lung) [µM]	TGI (NCI-H460 lung) [µM]	GI50 (A498 renal) [µM]	TGI (A498 renal) [µM]
CCOC(=O)Nc1ccc2nc(Sc3ccc(Cl)cc3)sc2c1	11.5	> 90.4	0.358	> 32.9	3.15	44.6	0.423	> 100	4.47	34	4.33	> 48.5	9.1	58.4	1.6	48.3	1.01	> 76.9	1.19	26.8
CC(=O)O[C@H]1Cc2c([nH]c3ccccc23)[C@@H](c2ccc(Cl)cc2)N1C(=O)CCNC(C)(C)C	4.13	8.29	1.09	6.11	4.33	8.62	3.08	10.1	1.79	6.07	4.01	8.45	5.75	10.5	3.92	8.28	4.26	10.4	1.9	5.83
COC(=O)C1=C(C)NC(C)=C(C(=O)OC)C1c1ccccc1[N+](=O)[O-]	76.9	> 100	34.7	> 100	> 100	> 100	78.8	> 100	70.7	> 100	> 100	> 100	> 100	> 100	29.6	> 100	97.6	> 100	11.3	56.3
Cn1cc(C2=C(c3cccc(Cl)c3)C(=O)NC2=O)c2ccccc21	> 25	> 25	13.9	> 25	16.5	> 25	12.6	> 25	> 12.6	> 25	> 25	> 25	13.4	> 25	5.19	12.7	> 22.7	> 25	8.25	> 25
COc1ccc2c(c1)/C(=N/OC(C)=O)c1c-2c(Nc2ccc(/C(C)=N/OC(C)=O)cc2)nc2ccccc12	56.6	> 100	87.6	> 100	96.8	> 100	40.4	> 100	> 100	> 100	43.2	> 100	> 100	> 100	25.5	63.8	35.7	> 100	> 100	> 100
CC[C@@]1(O)C(=O)N(CCN(C)C)Cc2c1cc1n(c2=O)Cc2cc3ccccc3nc2-1	4.31	> 100	6.24	> 100	18.9	> 100	> 41.7	> 100	> 100	> 100	4.64	> 100	> 100	> 100	7.2	> 100	1.82	> 83.1	56.2	> 100
NS(=O)(=O)c1ccc(N=Nc2cc3ccccc3c(C(=O)O)c2O)cc1		52.5		> 84.6		> 95.2		> 100		97		> 100		> 80.6		97		> 87.5		> 86.8
O=C(CN1CCN(c2cc3c(cc2F)c(=O)c(C(=O)O)cn3C2CC2)CC1)Nc1ccc(C(=O)/C=C/c2ccccc2)cc1	3.3	31.9	1.54	6.1	2.92	> 100	3.07	> 100	1.84	5.13	3.74	> 100	4.19	> 100	3.71	> 100	3.17	> 100	1.28	7.37
CN1CCN(Cc2ccc(NC(=O)c3cncc(C#Cc4cncc5[nH]ncc45)c3)cc2C(F)(F)F)CC1	1.14	4.71	1.04	10.7	1.53	7.76	0.005	1.64	0.23	1.04	1.36	6.45	1.38	5.43	0.336	1.31	1.19	5.6	0.275	1.56
CCN(Cc1cccc(C)c1)c1ccc(CO)c(Cl)c1	14.6	29.1	21.6	> 62	2.27	16.8	3.98	44.6	14.1	30.8	14.8	28.9	0.113	0.36	0.158	1.11	0.513	14.5	0.0362	0.162
Cn1cc(C2=C(c3cn(C)c4cc(Cl)ccc34)C(=O)NC2=O)c2ccccc21	0.181	> 25	0.073	6.38	0.0988	> 25	0.089	> 25	0.125	> 5.58	0.119		3.81	> 25	0.0981	> 25	0.0961	> 8.9	0.0619	0.928
O=[N+]([O-])C1(CO)COC2(OC1)c1ccccc1-c1ccccc12		> 100		82.1		> 100		> 87		> 100		> 100		> 100		> 100		> 100		> 100
COc1cc(C2CC(c3cc(Cl)c(C)cc3O)=NN2c2ccc(S(N)(=O)=O)cc2)cc(OC)c1OC (centres undefined)	2.78	8.33	2.47	7.35	2.84	8.89	3.22	30.9	2.09	5.01	3.4	11.2	2.6	6.6	2.47	8.5	2.06	3.87	4.15	15.3

From PubChem BioAssay (NCI)
